The values that follow come from patent publication US7674595B1, “Solid state NMR method for screening cell membrane protein binding drug candidates” (priority 2006, dated 2010).

Assay [1] concerns the target M2 Protein from Influenza A virus (Influenza A virus, UniProt P06821). The assay is classed as binding. The following applies: spectra with AMT vs without AMT, FIG. 6.
Assay [2] concerns gramicidin A channel. The following applies: DMPC-gA aligned by glass slides, channel parallel to B0; cited from earlier work.
Assay [3] concerns gramicidin A channel. Nature of the assay: 17O solid-state NMR of 17O-[D-Leu10]-gA in AAO-aligned DMPC bilayers, reversible ion binding. The following applies: 2.4 M KCl, approx. double occupancy of K+ in the dimeric channel, channel perpendicular to B0, 19.6 T, 40° C., reversible by EDTA wash. On the procedure: The ^17O-[D-Leu^10]-gA was prepared as described previously (29), resulting in material with 57% enrichment of ^17O isotope (H^172O from Cambridge Isotope Labs, Andover, Mass.). The dry peptide was codissolved with DMPC in a 1:16 molar ratio in benzene/ethanol (20:1 v/v) solvent (28) and pipetted onto the nanoporous support. The organic solution containing gA and DMPC was rapidly adsorbed. This commercial substrate, “20 nm” Anodisc® 13 membranes (Whatman International), is shaped as disks 13 mm in diameter that are approximately […] thick. For ^31P NMR experiments AAO disks were cut into strips less than 5 mm in width to fit into a rectangular approximately 600 μL sample coil. We have also designed a special coil for ^17O NMR that required no disk cutting. Typically, stacks of up to 40 AAO strips or disks were employed for NMR measurements. The disks have a well-aligned through-film porous structure with nanochannels directed perpendicular to the disk outer surface.
The manufacturer specifies that these nanoporous substrates have a 20-nm filtration diameter cutoff. […]
The Leu^10 carbonyl in the gramicidin A pore is one of three carbonyl sites involved in K^+ binding. We have monitored K^+ binding using the ^17O resonance of selectively labeled Leu^10 carbonyls of gramicidin A dimers incorporated into DMPC bilayers and aligned using the AAO method. […]

M2 Protein from Influenza A virus, sequence (P06821 whole entry): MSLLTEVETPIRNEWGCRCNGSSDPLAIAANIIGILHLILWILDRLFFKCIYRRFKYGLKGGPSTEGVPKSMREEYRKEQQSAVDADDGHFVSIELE

For `NC12CC3CC(CC(C3)C1)C2` [Amantadine], in assay [1], the “NMR signal changes upon binding drug (spectral shift of M2 protein)” value is “dramatic changes”.
With `[Cl-].[K+]` [KCl], the “shift of the 17O resonance at δ∥ upon K+ binding” value in assay [2] is recorded as 40 ppm. In addition, the “downfield shift Δδ of the 17O resonance of Leu10 carbonyl upon ion binding (δ⊥)” value in assay [3] is recorded as “≈ 18 ppm”.
